Experimental data published in ChEMBL document CHEMBL3885881, “DrugMatrix”.

Species: Rattus norvegicus
Test: DrugMatrix - Regimen: Daily Repeat
Type: toxicity, organism-based, Sprague-Dawley
Set-up: regimen Daily Repeat, gender Male, age 6-8 weeks
Conditions: in vivo, sc, route subcutaneous, […]; for ABSOLUTE BASOPHIL / ABSOLUTE EOSINOPHIL / ABSOLUTE LYMPHOCYTE / ABSOLUTE MONOCYTE / ABSOLUTE SEGMENTED NEUTROPHIL / BASOPHIL / EOSINOPHIL / ERYTHROCYTE COUNT / HEMATOCRIT / HEMOGLOBIN / LEUKOCYTE COUNT / LYMPHOCYTE / MEAN CORPUSCULAR HEMOGLOBIN / MEAN CORPUSCULAR HEMOGLOBIN CONCENTRATION / MONOCYTE / NUCLEATED RED BLOOD CELLS / PLATELET COUNT: tissue Blood; for ALANINE AMINOTRANSFERASE / ALBUMIN / ALKALINE PHOSPHATASE / ASPARTATE AMINOTRANSFERASE / BLOOD UREA NITROGEN / CARBON DIOXIDE / CHLORIDE / CHOLESTEROL / CREATINE PHOSPHOKINASE / CREATININE / GLUCOSE / LACTATE DEHYDROGENASE / PHOSPHORUS / POTASSIUM / SODIUM / TOTAL BILIRUBIN / TOTAL PROTEIN / URIC ACID: tissue Plasma
[1] = 130 mg/kg, 72 h, dose level High, time 3 day
[2] = 130 mg/kg, 120 h, dose level High, time 5 day
[3] = 72 h, dose 2.4 mg/Kg, dose level Low, time 3 day
[4] = 120 h, dose 2.4 mg/Kg, dose level Low, time 5 day

CC(C)(C)NCC(O)c1cc(O)cc(O)c1 (stereo not given) [TERBUTALINE]
ABSOLUTE BASOPHIL [1]: 0 CELLS/uL | ABSOLUTE EOSINOPHIL [1]: 167.67 CELLS/uL | ABSOLUTE LYMPHOCYTE [1]: 11900.33 CELLS/uL | ABSOLUTE MONOCYTE [1]: 398.67 CELLS/uL | ABSOLUTE SEGMENTED NEUTROPHIL [1]: 1166.67 CELLS/uL | BASOPHIL [1]: 0% | EOSINOPHIL [1]: 1.33% | ERYTHROCYTE COUNT [1]: 5.52 x10E6/uL | HEMATOCRIT [1]: 35.5% | HEMOGLOBIN [1]: 13.33 G/DL | LEUKOCYTE COUNT [1]: 13.63 x10E3/uL | LYMPHOCYTE [1]: 87% | MEAN CORPUSCULAR HEMOGLOBIN [1]: 24.2 pg | MEAN CORPUSCULAR HEMOGLOBIN CONCENTRATION [1]: 37.57 G/DL | MONOCYTE [1]: 3% | NUCLEATED RED BLOOD CELLS [1]: 0 /100WBC | PLATELET COUNT [1]: 1383.67 x10E3/uL | ALANINE AMINOTRANSFERASE [1]: 49 u/L | ALBUMIN [1]: 4.03 G/DL | ALKALINE PHOSPHATASE [1]: 361 u/L | ASPARTATE AMINOTRANSFERASE [1]: 73.33 u/L | BLOOD UREA NITROGEN [1]: 18.33 mg/dL | CARBON DIOXIDE [1]: 25.67 mmol/L | CHLORIDE [1]: 104 MEQ/L | CHOLESTEROL [1]: 72.33 mg/dL | CREATINE PHOSPHOKINASE [1]: 253.67 u/L | CREATININE [1]: 0.23 mg/dL | GLUCOSE [1]: 146 mg/dL | LACTATE DEHYDROGENASE [1]: 407 u/L | PHOSPHORUS [1]: 12.8 mg/dL | POTASSIUM [1]: 6.42 MEQ/L | SODIUM [1]: 145.5 MEQ/L | TOTAL BILIRUBIN [1]: 0.2 mg/dL | TOTAL PROTEIN [1]: 5.97 G/DL | URIC ACID [1]: 1.3 mg/dL | ABSOLUTE BASOPHIL [2]: 0 CELLS/uL | ABSOLUTE EOSINOPHIL [2]: 53.33 CELLS/uL | ABSOLUTE LYMPHOCYTE [2]: 12240 CELLS/uL | ABSOLUTE MONOCYTE [2]: 406 CELLS/uL | ABSOLUTE SEGMENTED NEUTROPHIL [2]: 2467.33 CELLS/uL | BASOPHIL [2]: 0% | EOSINOPHIL [2]: 0.33% | ERYTHROCYTE COUNT [2]: 6.08 x10E6/uL | HEMATOCRIT [2]: 37.43% | HEMOGLOBIN [2]: 14.03 G/DL | LEUKOCYTE COUNT [2]: 15.17 x10E3/uL | LYMPHOCYTE [2]: 80.67% | MEAN CORPUSCULAR HEMOGLOBIN [2]: 23.13 pg | MEAN CORPUSCULAR HEMOGLOBIN CONCENTRATION [2]: 37.47 G/DL | MONOCYTE [2]: 2.67% | NUCLEATED RED BLOOD CELLS [2]: 0.33 /100WBC | PLATELET COUNT [2]: 1346 x10E3/uL | ALANINE AMINOTRANSFERASE [2]: 52.67 u/L | ALBUMIN [2]: 4.13 G/DL | ALKALINE PHOSPHATASE [2]: 293.33 u/L | ASPARTATE AMINOTRANSFERASE [2]: 84.67 u/L | BLOOD UREA NITROGEN [2]: 17.33 mg/dL | CARBON DIOXIDE [2]: 28.33 mmol/L | CHLORIDE [2]: 101.33 MEQ/L | CHOLESTEROL [2]: 69 mg/dL | CREATINE PHOSPHOKINASE [2]: 289.33 u/L | CREATININE [2]: 0.22 mg/dL | GLUCOSE [2]: 150.67 mg/dL | LACTATE DEHYDROGENASE [2]: 492.33 u/L | PHOSPHORUS [2]: 14.6 mg/dL | POTASSIUM [2]: 6.32 MEQ/L | SODIUM [2]: 146.93 MEQ/L | TOTAL BILIRUBIN [2]: 0.2 mg/dL | TOTAL PROTEIN [2]: 6.13 G/DL | URIC ACID [2]: 1.93 mg/dL | ABSOLUTE BASOPHIL [3]: 0 CELLS/uL | ABSOLUTE EOSINOPHIL [3]: 181 CELLS/uL | ABSOLUTE LYMPHOCYTE [3]: 16357.33 CELLS/uL | ABSOLUTE MONOCYTE [3]: 366 CELLS/uL | ABSOLUTE SEGMENTED NEUTROPHIL [3]: 1395.67 CELLS/uL | BASOPHIL [3]: 0% | EOSINOPHIL [3]: 1% | ERYTHROCYTE COUNT [3]: 5.97 x10E6/uL | HEMATOCRIT [3]: 37.73% | HEMOGLOBIN [3]: 13.8 G/DL | LEUKOCYTE COUNT [3]: 18.3 x10E3/uL | LYMPHOCYTE [3]: 89.33% | MEAN CORPUSCULAR HEMOGLOBIN [3]: 23.13 pg | MEAN CORPUSCULAR HEMOGLOBIN CONCENTRATION [3]: 36.6 G/DL | MONOCYTE [3]: 2% | NUCLEATED RED BLOOD CELLS [3]: 0 /100WBC | PLATELET COUNT [3]: 1334.67 x10E3/uL | ALANINE AMINOTRANSFERASE [3]: 41.67 u/L | ALBUMIN [3]: 4.2 G/DL | ALKALINE PHOSPHATASE [3]: 286.67 u/L | ASPARTATE AMINOTRANSFERASE [3]: 75 u/L | BLOOD UREA NITROGEN [3]: 17 mg/dL | CARBON DIOXIDE [3]: 24.33 mmol/L | CHLORIDE [3]: 105.67 MEQ/L | CHOLESTEROL [3]: 72.67 mg/dL | CREATINE PHOSPHOKINASE [3]: 235.33 u/L | CREATININE [3]: 0.23 mg/dL | GLUCOSE [3]: 155.67 mg/dL | LACTATE DEHYDROGENASE [3]: 382 u/L | PHOSPHORUS [3]: 13.4 mg/dL | POTASSIUM [3]: 6.76 MEQ/L | SODIUM [3]: 149.43 MEQ/L | TOTAL BILIRUBIN [3]: 0.2 mg/dL | TOTAL PROTEIN [3]: 6.23 G/DL | URIC ACID [3]: 1.77 mg/dL | ABSOLUTE BASOPHIL [4]: 0 CELLS/uL | ABSOLUTE EOSINOPHIL [4]: 0 CELLS/uL | ABSOLUTE LYMPHOCYTE [4]: 13803 CELLS/uL | ABSOLUTE MONOCYTE [4]: 207 CELLS/uL | ABSOLUTE SEGMENTED NEUTROPHIL [4]: 2023.33 CELLS/uL | BASOPHIL [4]: 0% | EOSINOPHIL [4]: 0% | ERYTHROCYTE COUNT [4]: 5.8 x10E6/uL | HEMATOCRIT [4]: 36.37% | HEMOGLOBIN [4]: 13.53 G/DL | LEUKOCYTE COUNT [4]: 16.03 x10E3/uL | LYMPHOCYTE [4]: 86% | MEAN CORPUSCULAR HEMOGLOBIN [4]: 23.33 pg | MEAN CORPUSCULAR HEMOGLOBIN CONCENTRATION [4]: 37.23 G/DL | MONOCYTE [4]: 1.33% | NUCLEATED RED BLOOD CELLS [4]: 0 /100WBC | PLATELET COUNT [4]: 1437.33 x10E3/uL | ALANINE AMINOTRANSFERASE [4]: 49.33 u/L | ALBUMIN [4]: 4.13 G/DL | ALKALINE PHOSPHATASE [4]: 415 u/L | ASPARTATE AMINOTRANSFERASE [4]: 76 u/L | BLOOD UREA NITROGEN [4]: 20.33 mg/dL | CARBON DIOXIDE [4]: 27.67 mmol/L | CHLORIDE [4]: 105 MEQ/L | CHOLESTEROL [4]: 63 mg/dL | CREATINE PHOSPHOKINASE [4]: 180 u/L | CREATININE [4]: 0.22 mg/dL | GLUCOSE [4]: 154 mg/dL | LACTATE DEHYDROGENASE [4]: 224.33 u/L | PHOSPHORUS [4]: 13.03 mg/dL | POTASSIUM [4]: 6.39 MEQ/L | SODIUM [4]: 146.27 MEQ/L | TOTAL BILIRUBIN [4]: 0.17 mg/dL | TOTAL PROTEIN [4]: 5.87 G/DL | URIC ACID [4]: 1.57 mg/dL
